Test results as given in patent US9738634B2, “Heterocyclic amide compound and herbicide” (SYNGENTA PARTICIPATIONS AG, priority 2013, dated 2017).

Experiments:
Format in all cases: in vivo
Settings in all cases: treatment dosage 320 g/ha
[1] = system: black-grass; test: Test Example 3: weedkilling efficacy through soil treatment; H: black-grass
Procedure, shortened: (§1)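 Crop and weed responses were judged three weeks after a uniform surface spray of the water-diluted emulsion at the given g/ha rate. Seeds sat beneath about 1.5 cm of sterilized diluvial soil, and boxes stood in a greenhouse at 25 to 30° C.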

[2] = system: redroot pigweed; test: Test Example 4: weedkilling efficacy by foliar treatment; L: redroot pigweed
Procedure, shortened: (§2)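 Seeds are spot-sown into sterilized diluvial soil and covered with about 1.5 cm of soil. After 14 days' greenhouse growth at 25 to 30° C, plants are sprayed on stems and leaves with diluted emulsion at the stated g/ha rate, then scored at 3 weeks.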

[3] = system: rapeseed; test: Test Example 4: foliar treatment, effect on crop; g: rapeseed
Procedure, shortened: as §2

[4] = system: beet; test: Test Example 4: foliar treatment, effect on crop; f: beet
Procedure, shortened: as §2

[5] = system: fig-leafed goosefoot; test: Test Example 3: weedkilling efficacy through soil treatment; M: fig-leafed goosefoot
Procedure, shortened: as §1

[6] = system: wheat; test: Test Example 4: foliar treatment, effect on crop; e: wheat
Procedure, shortened: as §2

[7] = system: wheat; test: Test Example 3: soil treatment, effect on crop; e: wheat
Procedure, shortened: as §1

[8] = system: fig-leafed goosefoot; test: Test Example 4: weedkilling efficacy by foliar treatment; M: fig-leafed goosefoot
Procedure, shortened: as §2

[9] = system: wild oat; test: Test Example 3: weedkilling efficacy through soil treatment; G: wild oat
Procedure, shortened: as §1

[10] = system: Italian ryegrass; test: Test Example 4: weedkilling efficacy by foliar treatment; I: Italian ryegrass
Procedure, shortened: as §2

[11] = system: rapeseed; test: Test Example 3: soil treatment, effect on crop; g: rapeseed
Procedure, shortened: as §1

[12] = system: black-grass; test: Test Example 4: weedkilling efficacy by foliar treatment; H: black-grass
Procedure, shortened: as §2

[13] = system: catchweed; test: Test Example 3: weedkilling efficacy through soil treatment; O: catchweed
Procedure, shortened: as §1

[14] = system: green foxtail; test: Test Example 4: weedkilling efficacy by foliar treatment; E: green foxtail
Procedure, shortened: as §2

[15] = system: catchweed; test: Test Example 4: weedkilling efficacy by foliar treatment; O: catchweed
Procedure, shortened: as §2

[16] = system: wild oat; test: Test Example 4: weedkilling efficacy by foliar treatment; G: wild oat
Procedure, shortened: as §2

[17] = system: barnyard grass; test: Test Example 4: weedkilling efficacy by foliar treatment; F: barnyard grass
Procedure, shortened: as §2

[18] = system: corn; test: Test Example 3: soil treatment, effect on crop; c: corn
Procedure, shortened: as §1

[19] = system: common wind-grass; test: Test Example 4: weedkilling efficacy by foliar treatment; J: common wind-grass
Procedure, shortened: as §2

[20] = system: bulrush; test: Test Example 2: weedkilling efficacy, growth period weed treatment in the submerged state; B: bulrush
Procedure, shortened: (§3)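 Seedlings at 1-2 leaves in 4 cm-deep submerged alluvial soil received emulsion formulations on the water surface, dosed per hectare; effects were judged 3 weeks on.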

[21] = system: beet; test: Test Example 3: soil treatment, effect on crop; f: beet
Procedure, shortened: as §1

[22] = system: Italian ryegrass; test: Test Example 3: weedkilling efficacy through soil treatment; I: Italian ryegrass
Procedure, shortened: as §1

[23] = system: barnyard grass; test: Test Example 1: weedkilling efficacy, preemergent weed treatment in the submerged state; A: barnyard grass
Procedure, shortened: (§4)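 Pre-emergence paddy test: weed seeds sown in submerged alluvial soil (4 cm water), 2.5-leaf rice transplanted, water-diluted emulsion applied to water surface at sowing at stated g/ha. Scored at 3 weeks, greenhouse 25–30 °C.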

[24] = system: barnyard grass; test: Test Example 3: weedkilling efficacy through soil treatment; F: barnyard grass
Procedure, shortened: as §1

[25] = system: oval-leafed pondweed; test: Test Example 2: weedkilling efficacy, growth period weed treatment in the submerged state; C: oval-leafed pondweed
Procedure, shortened: as §3

[26] = system: Indian mallow; test: Test Example 4: weedkilling efficacy by foliar treatment; K: Indian mallow
Procedure, shortened: as §2

[27] = system: green foxtail; test: Test Example 3: weedkilling efficacy through soil treatment; E: green foxtail
Procedure, shortened: as §1

[28] = system: chickweed; test: Test Example 4: weedkilling efficacy by foliar treatment; N: chickweed
Procedure, shortened: as §2

[29] = system: directly sown rice; test: Test Example 3: soil treatment, effect on crop; b: directly sown rice
Procedure, shortened: as §1

[30] = system: corn; test: Test Example 4: foliar treatment, effect on crop; c: corn
Procedure, shortened: as §2

[31] = system: directly sown rice; test: Test Example 4: foliar treatment, effect on crop; b: directly sown rice
Procedure, shortened: as §2

[32] = system: redroot pigweed; test: Test Example 3: weedkilling efficacy through soil treatment; L: redroot pigweed
Procedure, shortened: as §1

[33] = system: barnyard grass; test: Test Example 2: weedkilling efficacy, growth period weed treatment in the submerged state; A: barnyard grass
Procedure, shortened: as §3

[34] = system: chickweed; test: Test Example 3: weedkilling efficacy through soil treatment; N: chickweed
Procedure, shortened: as §1

[35] = system: soybean; test: Test Example 4: foliar treatment, effect on crop; d: soybean
Procedure, shortened: as §2

[36] = system: oval-leafed pondweed; test: Test Example 1: weedkilling efficacy, preemergent weed treatment in the submerged state; C: oval-leafed pondweed
Procedure, shortened: as §4

[37] = system: crabgrass; test: Test Example 3: weedkilling efficacy through soil treatment; D: crabgrass
Procedure, shortened: as §1

[38] = system: birds-eye speedwell; test: Test Example 3: weedkilling efficacy through soil treatment; p: birds-eye speedwell
Procedure, shortened: as §1

[39] = system: soybean; test: Test Example 3: soil treatment, effect on crop; d: soybean
Procedure, shortened: as §1

[40] = system: crabgrass; test: Test Example 4: weedkilling efficacy by foliar treatment; D: crabgrass
Procedure, shortened: as §2

[41] = system: common wind-grass; test: Test Example 3: weedkilling efficacy through soil treatment; J: common wind-grass
Procedure, shortened: as §1

[42] = system: Indian mallow; test: Test Example 3: weedkilling efficacy through soil treatment; K: Indian mallow
Procedure, shortened: as §1

[43] = system: bulrush; test: Test Example 1: weedkilling efficacy, preemergent weed treatment in the submerged state; B: bulrush
Procedure, shortened: as §4

[44] = system: transplanted rice; test: Test Example 1: preemergent weed treatment in the submerged state, effect on crop; a: transplanted rice
Procedure, shortened: as §4

CC1=C(c2ccccc2)C(=O)N(C(C)(C)C(=O)Nc2ccc(F)cn2)CO1 [B-2-26]
H (black-grass) weedkilling efficacy grade [1]: 5 (weed kill ratio 90% or more, (practically complete withering))
L (redroot pigweed) weedkilling efficacy grade [2]: 4 (weed kill ratio 70% or more, less than 90%)
g (rapeseed) effect on crop grade [3]: 1 (weed kill ratio 5% or more, less than 20%)
f (beet) effect on crop grade [4]: 4 (weed kill ratio 70% or more, less than 90%)
M (fig-leafed goosefoot) weedkilling efficacy grade [5]: 4 (weed kill ratio 70% or more, less than 90%)
e (wheat) effect on crop grade [6]: 0 (weed kill ratio 5% or less (practically no effect))
e (wheat) effect on crop grade [7]: 0 (weed kill ratio 5% or less (practically no effect))
M (fig-leafed goosefoot) weedkilling efficacy grade [8]: 4 (weed kill ratio 70% or more, less than 90%)
G (wild oat) weedkilling efficacy grade [9]: 1 (weed kill ratio 5% or more, less than 20%)
I (Italian ryegrass) weedkilling efficacy grade [10]: 3 (weed kill ratio 40% or more, less than 70%)
g (rapeseed) effect on crop grade [11]: 0 (weed kill ratio 5% or less (practically no effect))
H (black-grass) weedkilling efficacy grade [12]: 4 (weed kill ratio 70% or more, less than 90%)
O (catchweed) weedkilling efficacy grade [13]: 2 (weed kill ratio 20% or more, less than 40%)
E (green foxtail) weedkilling efficacy grade [14]: 4 (weed kill ratio 70% or more, less than 90%)
O (catchweed) weedkilling efficacy grade [15]: 3 (weed kill ratio 40% or more, less than 70%)
G (wild oat) weedkilling efficacy grade [16]: 3 (weed kill ratio 40% or more, less than 70%)
F (barnyard grass) weedkilling efficacy grade [17]: 3 (weed kill ratio 40% or more, less than 70%)
c (corn) effect on crop grade [18]: 0 (weed kill ratio 5% or less (practically no effect))
J (common wind-grass) weedkilling efficacy grade [19]: 5 (weed kill ratio 90% or more, (practically complete withering))
B (bulrush) weedkilling efficacy grade [20]: 5 (weed kill ratio 90% or more, (practically complete withering))
f (beet) effect on crop grade [21]: 0 (weed kill ratio 5% or less (practically no effect))
I (Italian ryegrass) weedkilling efficacy grade [22]: 5 (weed kill ratio 90% or more, (practically complete withering))
A (barnyard grass) weedkilling efficacy grade [23]: 5 (weed kill ratio 90% or more, (practically complete withering))
F (barnyard grass) weedkilling efficacy grade [24]: 5 (weed kill ratio 90% or more, (practically complete withering))
C (oval-leafed pondweed) weedkilling efficacy grade [25]: 5 (weed kill ratio 90% or more, (practically complete withering))
K (Indian mallow) weedkilling efficacy grade [26]: 3 (weed kill ratio 40% or more, less than 70%)
E (green foxtail) weedkilling efficacy grade [27]: 5 (weed kill ratio 90% or more, (practically complete withering))
N (chickweed) weedkilling efficacy grade [28]: 3 (weed kill ratio 40% or more, less than 70%)
b (directly sown rice) effect on crop grade [29]: 2 (weed kill ratio 20% or more, less than 40%)
c (corn) effect on crop grade [30]: 3 (weed kill ratio 40% or more, less than 70%)
b (directly sown rice) effect on crop grade [31]: 1 (weed kill ratio 5% or more, less than 20%)
L (redroot pigweed) weedkilling efficacy grade [32]: 4 (weed kill ratio 70% or more, less than 90%)
A (barnyard grass) weedkilling efficacy grade [33]: 5 (weed kill ratio 90% or more, (practically complete withering))
N (chickweed) weedkilling efficacy grade [34]: 3 (weed kill ratio 40% or more, less than 70%)
d (soybean) effect on crop grade [35]: 4 (weed kill ratio 70% or more, less than 90%)
C (oval-leafed pondweed) weedkilling efficacy grade [36]: 5 (weed kill ratio 90% or more, (practically complete withering))
D (crabgrass) weedkilling efficacy grade [37]: 5 (weed kill ratio 90% or more, (practically complete withering))
P (birds-eye speedwell) weedkilling efficacy grade [38]: 0 (weed kill ratio 5% or less (practically no effect))
d (soybean) effect on crop grade [39]: 0 (weed kill ratio 5% or less (practically no effect))
D (crabgrass) weedkilling efficacy grade [40]: 3 (weed kill ratio 40% or more, less than 70%)
J (common wind-grass) weedkilling efficacy grade [41]: 5 (weed kill ratio 90% or more, (practically complete withering))
K (Indian mallow) weedkilling efficacy grade [42]: 0 (weed kill ratio 5% or less (practically no effect))
B (bulrush) weedkilling efficacy grade [43]: 5 (weed kill ratio 90% or more, (practically complete withering))
a (transplanted rice) effect on crop grade [44]: 0 (weed kill ratio 5% or less (practically no effect))
